Measured values: patent US4912092A, “Methods for increasing extracellular adenosine and for stabilizing mast cells” (The Regents of the University of California, priority 1987, dated 1990)

Columns and labels:
[1] = molecular target: T1, AMP deaminase (Homo sapiens, UniProt Q01433); experiment: Inhibition of AMP deaminase (14C-AMP to 14C-IMP conversion); format: biochemical
T1 construct: endogenous in cells
T1 sequence (Q01433 1-825): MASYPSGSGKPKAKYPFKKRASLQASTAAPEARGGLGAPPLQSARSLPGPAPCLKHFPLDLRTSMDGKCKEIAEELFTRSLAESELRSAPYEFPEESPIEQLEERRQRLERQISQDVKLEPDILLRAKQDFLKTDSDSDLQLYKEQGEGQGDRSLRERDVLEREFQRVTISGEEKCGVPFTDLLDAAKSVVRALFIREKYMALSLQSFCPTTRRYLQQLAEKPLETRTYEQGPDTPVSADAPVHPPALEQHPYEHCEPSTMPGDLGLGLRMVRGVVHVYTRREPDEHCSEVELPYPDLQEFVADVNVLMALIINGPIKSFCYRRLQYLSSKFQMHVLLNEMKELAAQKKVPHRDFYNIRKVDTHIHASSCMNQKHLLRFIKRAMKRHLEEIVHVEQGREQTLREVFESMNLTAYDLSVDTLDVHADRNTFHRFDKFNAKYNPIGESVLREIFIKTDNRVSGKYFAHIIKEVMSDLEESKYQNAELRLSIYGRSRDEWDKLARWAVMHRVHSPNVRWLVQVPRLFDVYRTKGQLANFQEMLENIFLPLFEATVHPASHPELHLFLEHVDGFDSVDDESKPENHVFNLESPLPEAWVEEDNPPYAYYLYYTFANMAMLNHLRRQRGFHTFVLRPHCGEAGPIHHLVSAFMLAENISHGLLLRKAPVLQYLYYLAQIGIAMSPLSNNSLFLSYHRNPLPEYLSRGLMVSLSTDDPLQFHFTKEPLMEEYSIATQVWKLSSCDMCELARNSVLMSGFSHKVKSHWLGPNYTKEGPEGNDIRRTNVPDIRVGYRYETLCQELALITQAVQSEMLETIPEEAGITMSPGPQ
Protocol: The phosphorylated forms are referred to as AICA ribotide and ribavirin monophosphate, respectively. Using 200 μM of each ribotide, AMP deaminase was inhibited 38% and 54%, respectively.

[2] = test system: granulocytes and endothelial cells; experiment: Granulocyte/endothelial cell interaction, intravital microscopy of mesentery microvessels; format: in vivo, rat; conditions: superfusion with 20 μM, approximately 2 μM in the vessel
Protocol: The parameter measured was the fracture stress between the two cell types.
These studies were performed by intravital microscopy filming of granulocytes in rat mesentary microvessels. The rolling velocity of granulocytes compared to the streaming velocity of red cells was calculated before and after the administration of adenosine.

[3] = test system: Mouse bone marrow-derived mast cells; format: cell-based
Protocol: By preventing mast cell degranulation, it is possible to prevent or control a patient's allergic response. Bone marrow obtained from Balb/C mice femurs was cultured in a 1:1 mixture of Razin media and conditioned media, produced by co-culturing splenocytes from C57B1/6J and C3H mice in the presence of Concanavalin A as described by Razin et al. in the Proc. Natl. Acad. Sci. USA 28: 2559-2561, 1981. After weekly passaging and at least 15 days in tissue culture, the resulting cells were 90% pure mast cells and 95% viable as assessed by Trypan blue exclusion. Cells exposed to ribavirin in culture were washed three times prior to use in experiments. Parallel cultures of cells grown in media alone were used as controls for pharmacologically manipulated mast cells. Cell growth was assessed by counting cells at particular time points and comparing actual numbers of ribavirin-treated cells to numbers of cells grown in media alone.
β-hexosaminidase was chosen as a representative granule-associated, preformed mast cell mediator because it is easily quantitated, and its release nearly identically parallels that of histamine. Mouse bone marrow-derived mast cells were centrifuged at 200×g for 5 minutes, washed three times in Tyrode's buffer lacking divalent cations, sensitized for 30 minutes at 37° C. with anti-DNP ([…]) IgE (1 μg/10^6 cells) and challenged with either DNP-BSA antigen (175 ng/3×10^5 cells) or A23187 (10 μg/ml/3×10^5 cells) in 400 μl of complete Tyrode's buffer for 10 minutes at 37° C. Reaction mixtures were centrifuged at 200×g for 10 minutes, and supernatant and pellet β-hexosaminidase concentrations were assayed by the hydrolysis of p-nitrophenyl-β-D-glucosamide as described in Schwartz et al. in J. Immunol. […] Spontaneous β-hexosaminidase release was determined in unchallenged cells. The net % of β-hexosaminidase released is defined as follows: [formula] where [β-hex] is β-hexosaminidase and super. is supernatant. When exogenous adenosine was present in reaction mixtures, it was added simultaneously with the secretagogue.

[4] = test system: human splenic lymphoblast cell line (WI-L2); experiment: Adenosine excretion by human lymphoblasts during ATP breakdown (2-deoxyglucose); format: cell-based; conditions: three-hour preincubation and four-hour incubation during 2-deoxyglucose treatment (FIGS. 8, 9)
Protocol: (§1) The history and properties of the cell line have been described by Hershfield et al. in Science, Vol. 197, p. 1284, 1977.
(§2) Catabolism of cellular ATP stores was stimulated by adding either 2-deoxyglucose or a calcium ionophore. At various times, the amount of adenosine released by the cells into the supernatant, or the amount of nucleotides remaining in the cells, was determined by mixing 30 μl of chilled 4.4N perchloric acid with 300 μl of supernatants, or by adding 300 μl of chilled 0.4N perchloric acid to the cells collected as pellets and centrifuging the mixtures at 500×G for 10 minutes at 4° C. […] 1245, 1975. Following centrifugation at 1500×G for three minutes at 4° C., the aqueous phase is removed and frozen at -20° C. until assayed for adenosine, inosine, or for nucleotides. Adenosine was evaluated isocratically on a C-18 microBondapak reverse phase column equilibrated with 4 millimolar potassium phosphate, (pH 3.4):acetonitrile 60% in water (95:5 v/v) buffer. Adenosine elutes at 8-10 minutes, and its identity was confirmed by its sensitivity to adenosine deaminase and by spiking with adenosine standards. The extracted samples from the cell pellet were analyzed for nucleotides by high pressure liquid chromatography on a Whatman Partisil-10 (SAX) column equilibrated with 10 millimolar potassium phosphate, pH 3.78, and eluted with a linear gradient to a 0.25 molar potassium phosphate, 0.5 molar KCl, pH 3.45. […] Peaks were quantitated by comparison with high pressure liquid chromatography analysis of suitable standards.
Cells were grown to about 0.5×10^6 cells/ml (mid-log phase) in FIG. 2 and to about 1.0×10^6 cells/ml (early stationary phase) in FIGS. 7-9.

[5] = test system: HPRT- neuroblastoma cells; experiment: Adenosine excretion by ionophore-stimulated HPRT- neuroblastoma cells; format: cell-based; conditions: pretreatment
Protocol: as §1, §2
To induce ATP catabolism, the growth medium was replaced by medium containing micromolar amounts of the calcium ionophore A23187 and 1.0 μM deoxycoformycin.

NC(=O)c1ncn([C@@H]2O[C@H](COP(=O)(O)O)[C@@H](O)[C@H]2O)n1 [ribavirin monophosphate]
AMP deaminase inhibited ([1]; 200 μM ribotide, cytoplasmic lysates from a human lymphoblast line): 54%

NC(=O)c1ncn([C@@H]2O[C@H](COP(=O)(O)O)[C@@H](O)[C@H]2O)c1N [AICA ribotide]
inhibition at 200 µM ([1]; read-out: AMP deaminase inhibited): 38%

Nc1ncnc2c1ncn2[C@@H]1O[C@H](CO)[C@@H](O)[C@H]1O [Adenosine, 9-β-D-ribofuranosyladenine]
decrease of fracture stress between granulocytes and endothelial cells [2]: by a factor of two | rolling velocity of granulocytes in microvessels [2]: twofold increase

NC(=O)c1ncn([C@@H]2O[C@H](CO)[C@@H](O)[C@H]2O)n1 [ribavirin, 1-β-D-ribofuranosyl-1H-1,2,4-triazole-3-carboxamide]
mast cell mediator content and cell viability [3]: did not alter | preformed mediator release ([3]; 1 μM for six days): inhibits mediator release significantly | β-hexosaminidase release ([3]; 10 μM added at the time of mast cell stimulation): does not affect | net β-hexosaminidase release versus controls ([3]; 1, 10, or 20 μM for six days, A23187 challenge (FIG. 11)): significantly less | β-hexosaminidase release versus cells cultured in media alone ([3]; three to seven days in 10 μM, washed, A23187 challenge (FIG. 10), p<0.05): marked attenuation | spontaneous release of β-hexosaminidase versus control cells ([3]; unchallenged cells): similar | adenosine release from lymphoblasts [4]: increased adenosine release | correction of the twofold lower adenosine secretion of HPRT-deficient cells [5]: can be corrected by pretreatment
